Assays:
[1] = molar heat capacity at constant pressure; conditions: 100 kPa, Liquid, DSC
[2] = molar heat capacity at constant pressure; xn = mol fraction of the nth substance listed; conditions: 100 kPa, Liquid, DSC, x2 = 0

CCOC(F)(C(F)(F)C(F)(F)C(F)(F)F)C(F)(C(F)(F)F)C(F)(F)F (configuration not stated) [2-trifluoromethyl-3-ethoxydodecafluorohexane]
[1]
Conditions | molar heat capacity at constant pressure [J/K/mol]
297.91 K | 466.29
307.79 K | 472.92
317.66 K | 479.54
327.54 K | 486.58
337.42 K | 494.03
347.29 K | 500.66
357.17 K | 508.53
367.05 K | 517.23
376.92 K | 523.85
386.8 K | 531.72

CC(C)OC(C)C [diisopropyl ether]
[1]
Conditions | molar heat capacity at constant pressure [J/K/mol]
290.5 K | 211.5
295.44 K | 213.44
300.38 K | 215.28
305.32 K | 217.33
310.26 K | 219.37
315.2 K | 221.41
320.13 K | 223.46
325.07 K | 225.5
330.01 K | 227.65
334.95 K | 229.89
339.89 K | 232.04

CC(C)OC(C)C [diisopropyl ether] + CCOC(F)(C(F)(F)C(F)(F)C(F)(F)F)C(F)(C(F)(F)F)C(F)(F)F
[2]
Conditions | molar heat capacity at constant pressure [J/K/mol]
290.5 K | 211.5
295.44 K | 213.44
300.38 K | 215.28
305.32 K | 217.33
310.26 K | 219.37
315.2 K | 221.41
320.13 K | 223.46
325.07 K | 225.5
330.01 K | 227.65
334.95 K | 229.89
339.89 K | 232.04

— the NIST ThermoML archive (doi:10.1016/j.jct.2018.08.005)
